Source: patent publication US20140127136A1, “LIPOSOMES USEFUL FOR DRUG DELIVERY TO THE BRAIN” (Merrimack Pharmaceuticals, Inc., priority 2004, published 2014)
Several values for one entry are separate records, joined by “and”; a condition that tells them apart may be missing. Identical values can stand only once. Counter-ions that a name gives are not always drawn. Like-named read-outs stand apart in the source and are kept apart here.

Key:
[1] = test system: HER2-overexpressing human breast carcinoma cells (BT-474); test: MTT cytotoxicity of 6-APE formulations; details: 6 hours exposure, 3 days post-incubation
[2] = test system: MDA-MB-468 EGFR-overexpressing human breast cancer cells; test: Cytotoxicity of free, liposomal and anti-EGFR-immunoliposomal 6-APE; type: cell-based; details: 6 hours exposure, 3 days post-incubation
[3] = test system: MCF-7 human breast cancer cells with low EGFR expression; test: as above; type: cell-based; details: 6 hours exposure, 3 days post-incubation
[4] = cited from earlier work; for pKa: aqueous solution, ambient temperature, conjugated amine base, value (I) where two are given
[5] = mouse, 0.1 mg/ml
[6] = test system: human breast carcinoma BT-474 xenografts; test: Antitumor efficacy of CPT-11 liposomes (TEA-Pn) against breast cancer xenografts in nude mice; type: in vivo, NCR nu/nu mice; details: 50 mg CPT-11/kg i.v. on days 14, 18, 21, 25
[7] = Toxicity of free and liposomal irinotecan following CED delivery into the brain; type: in vivo, rats; details: for brain tissue toxicity 60 days after CED: single 20 μl CED infusion
Method: Ls-CPT-11 was prepared and the CED procedure used were described in Example 68. To evaluate toxicity, healthy rats received a single infusion of free, i.e., dissolved, or Ls-CPT-11 via CED. […] Rats were euthanized 60 days after CED treatments, and their brains were harvested, sectioned and stained for standard pathology xamination.
No systemic toxicities, including weight loss or diarrhea, were observed following CED of any of the treatments. Furthermore, no gross neurologic or behavioral changes were noted post-treatment. Indeed, no dose-limiting toxicities for nanoliposomal CPT-11 were identified up to 1.6 mg/rat in a single 0.02 mL infusion, which represented the highest dose achieved without further concentrationg the liposomal sample.

[8] = Pharmacokinetics of irinotecan formulations administered by CED into normal brain tissue; details: 3 mg/ml
[9] = test system: subcutaneous xenografts of human colon carcinoma (HT-29); test: Antitumor activity of free and liposomal CPT-11 against HT-29 xenografts; type: in vivo, NCR nu/nu athymic nude mice; details: 50 mg/kg per injection
orthotopic U87 tumors = details: 60 μg (3 mg/ml), single CED 5 d after implantation
in vivo [10] = details: Sprague-Dawley, rat, brain, other: CED infusion into the brain, 0.06 mg
[11] = MTD seeking study of CPT-11 formulations, single i.v. injection; type: in vivo, Swiss Webster mice
[12] = Maximum tolerated dose of free and liposomal Topotecan, 3 weekly i.v. injections; details: female, Swiss-Webster, mouse, in vivo, iv
[13] = Animal body weights in the BT-474 Topotecan MTD-fraction study; type: in vivo, nude mice; details: at MTD, i.v. at day 19, 23, 27
Source text: The control group received injections of physiological saline. […] There was no significant difference in efficacy between free and liposomal drug given at their respective MTD or at identical fractions (½, ¼, or ⅛) thereof.

SKBr-3 cells = test: MTT cytotoxicity of Topotecan formulations (TEA-Pn); type: cell-based; details: Homo sapiens, SK-BR-3, read-out: IC50 (drug dose resulting in 50% growth inhibition), 4-6 hours exposure, 4 days post-incubation
[14] = Brain tissue pharmacokinetics of free and liposomal topotecan delivered by CED
[15] = test system: U87MG intracranial glioblastoma xenograft; test: Therapeutic efficacy of liposomal topotecan by CED against intracranial glioma xenografts; type: in vivo, athymic rats; details: CED 20 μl, 0.5 mg/ml, 7 days after tumor implantation
Method: Twenty one athymic rats received the implantation of U87MG tumor cells (5×10^5 cells/10 μl HBSS) into their right striatum and were divided randomly into three groups. Under deep isofluorane anesthesia, rats were placed in a small-animal stereotaxic frame (David Kopf Instruments, Tujunga, Calif.). […] After 2 min, another 5 μl was injected at a depth of 4 mm. After an additional 2 min, the needle was removed and the wound was closed with sutures.
All control rats and rats treated with free TPT developed neurological symptoms around day 17-26 due to large intracranial tumors that were confirmed by histology.
To evaluate the treatment of larger tumors, the U87MG intracranial model was developed in 12 rats. However, in this experiment CED was performed 12 days after tumor implantation (FIG. 48B). […] Therefore, to achieve proper coverage of the tumor, there is the need for guided and image-monitored administration of the liposomal drug.

[16] = Stability and plasma pharmacokinetics of liposomal and F5-immunoliposomal Topotecan in mice; type: in vivo, Swiss Webster mice; details: mouse plasma, 1 hour post i.v. injection, 5 mg/kg
Method: Topotecan liposomes containing radioactive lipid label [^3H]-CHE at 1.5 mCi/mmol of phospholipid were prepared according to Examples 11 and 19 using an ethanol lipid solution mixing-extrusion procedure under the following conditions: gradient-forming salt solution: 0.643 N triethylammonium sucrose octasulfate; polycarbonate membrane extrusion: 15 passages through 2 stacked PCTE filters, 80 nm pore size; Topotecan loading: drug/phospholipid input ratio 350 mg/mmol (calculated for Topotecan free base); F5 scFv conjugation was performed as described in Example 19. The liposomes had the following characteristics:
The study was performed generally as in Example 22. […] At 1 hour, 8 hour, or 24 hour post injection time points, 3 animals per time point were exsanguinated via open heart punction under Ketamine/Xylazine anesthesia, the blood was collected into tubes containing PBS-EDTA, and assayed for Topotecan (fluorometry) and liposome lipid (by radioactivity scintillation counting). […] The amount of drug remaining encapsulated in the liposomes at each time point was calculated for each animal individually by comparing drug/lipid radioactivity ratio of the plasma samples with that of the injected liposomes. […]

in vivo [17] = details: Sprague-Dawley, rat, brain, other: CED infusion into the brain, 0.01 mg
[18] = test system: subcutaneous xenograft tumors of BT-474 human breast carcinoma; test: Antitumor efficacy of non-targeted and HER2-targeted liposomal vincristine; type: in vivo, nude mice; details: 2 mg VCR/kg weekly i.v. for three weeks
[19] = test system: HER2-overexpressing human non-small cell lung carcinoma cells CaLu-3; details: MTT
[20] = test system: HT-29 human colon carcinoma xenografts; details: 5 mg/kg i.v. every three days, four injections
[21] = LD50 of triethylammonium sulfate compared with doxorubicin; details: in vivo
[22] = inj. dose 60 mg/kg, single i.v., individual mice, hydrochloride, 60 mg/kg
[23] = inj. dose 70 mg/kg, single i.v., individual mice, hydrochloride, 70 mg/kg
[24] = inj. dose 80 mg/kg, single i.v., individual mice, hydrochloride, 80 mg/kg
[25] = rat brain tissue, CED 20 μl, 0.5 mg/ml

## 6-(3-aminopropyl)ellipticine [free APE]
[1]
  IC50: 0.26 μg APE/ml
[2]
  IC50: about 0.1 μg/ml
[3]
  IC50: about 0.5 μg/ml

## CC(C)(N)CO [2-amino-2-methylpropanol]
[4]
  pKa: 9.69

## CC(C)N [Isopropylamine]
[4]
  pKa: 10.53

## CN1CCN(C)CC1 [N,N′-dimethylpiperazine]
[4]
  pKa: 9.66
[4]; second ammonium group
  pKa (II): 5.2

## OCCN1CCOCC1 [N-hydroxyethylmorpholine]
[4]
  pKa: 7.39

## OCCN1CCCC1 [N-hyrdoxyethylpyrrolidine]
[4]
  pKa: 9.44

## CN1CCCCC1 [N-methylpiperidine]
[4]
  pKa: 10.38

## NC1CCCCC1 [cyclohexylamine]
[4]
  pKa: 10.66

## C1CCC(NC2CCCCC2)CC1 [dicyclohexylamine]
[4]
  pKa: 10.4

## CCN(C)CC [diethylmethylamine]
[4]
  pKa: 10.35

## CCCN(C)C [dimethylpropylamine]
[4]
  pKa: 10.15

## CCc1c2c(nc3ccc(OC(=O)N4CCC(N5CCCCC5)CC4)cc13)-c1cc3c(c(=O)n1C2)COC(=O)[C@]3(O)CC [free CPT-11, Irinotecan hydrochloride]
50 mg/kg per injection (free: permanent; liposomal: transient)
  weight loss during treatment, % of pre-treatment value: about 6%
50 mg/kg, for about one hour after injection
  condition after drug injection: temporary morbidity
[5]; 2 h
  CPT-11, % carboxylate: 35.2 ± 1.9%
  CPT-11, % lactone: 1.9 ± 0.4%
  SN-38, % carboxylate: 58.4 ± 2.1%
  SN-38, % lactone: 4.4 ± 0.1%
[5]; 12 h
  CPT-11, % carboxylate: 11.5 ± 0.9%
  CPT-11, % lactone: <0.1%
  SN-38, % carboxylate: 78.6 ± 1.3%
  SN-38, % lactone: 9.9 ± 0.8%
[5]; 24 h
  CPT-11, % carboxylate: <0.1%
  CPT-11, % lactone: <0.1%
  SN-38, % carboxylate: 77.5 ± 9.8%
[6]
  average tumor size at day 46: about 1,000 mm^3
  effect on tumor growth: reduced the rate of tumor growth
[7]; 60 μg
  brain tissue toxicity 60 days after CED: no apparent tissue toxicity
[7]; 0.4 mg/rat
  brain tissue toxicity 60 days after CED: extensive tissue necrosis within the CNS
[7]; CED into rat brain
  highest tolerable dose: 60 μg/infusion
[8]
  AUC∞: 16.4 µg·days/g
[9]
  animals tumor-free at the end of study without signs of regrowth: no animals without tumor regrowth
  effect on the tumor growth: only minor effect on the tumor growth
[9]; 4 i.v. injections at intervals of 4 days
  Average tumor doubling time: 4.8 days
Orthotopic U87 tumors
  Median survival: 28.5 days
In vivo [10]
  MRT: 9.6 h
[11]; Swiss Webster, mouse, in vivo, iv, acute, single i.v. injection, mice
  MTD at 7 days: 80 mg/kg
[11]; [22]
  Animal body weight at day 1 post injection: 20.4 g and 19.1 g and 20.0 g and 18.7 g
  Animal body weight at day 2 post injection: 20.9 g and 19.4 g
  Animal body weight at day 4 post injection: 22.1 g and 20.2 g
  Animal body weight at day 6 post injection: 22.2 g and 20.4 g
  Animal body weight at day 11 post injection: 22.5 g and 21.1 g
[11]; [23]
  Animal body weight at day 1 post injection: 20.0 g and 21.8 g
  Animal body weight at day 2 post injection: 20.6 g and 22.4 g
[11]; [24]
  Animal body weight at day 1 post injection: 19.9 g and 20.8 g
  Animal body weight at day 2 post injection: 20.1 g and 21.1 g
  Animal body weight at day 3 post injection: 19.3 g and 20.6 g (2×) and 21.4 g and 21.9 g
[11]; inj. dose 90 mg/kg, single i.v., individual mice
  outcome after injection: died 1-2 min after injection
[11]; inj. dose 100 mg/kg, single i.v., individual mice
  outcome after injection: died 1-2 min after injection

## CC[C@@]1(O)C(=O)OCc2c1cc1n(c2=O)Cc2cc3c(CN(C)C)c(O)ccc3nc2-1 [free Topotecan, Topotecan Hydrochloride]
[12]
  MTD at 3 once-a-week injections: 18.4 mg/kg
  MTD at 10 days: 11.7 to 21 mg/kg
[13]
  transient decrease in body weight, % of the pre-treatment value: about 15%
SKBr-3 cells
  IC50: > 30 µg/mL
[14]; [25]
  AUC∞: 2.8 µg·days/g
  CL: 3.6 g/day
[14]; rat brain, CED
  persistence in brain tissue post CED (detected as long as / completely cleared within): ≤ 1 days
[15]
  survival / anti-tumor effect: no survival benefits
[16]
  Drug, % of injected dose: less than 1%
In vivo [17]
  MRT: 2.4 h
  half-life: 2.4 h

## CC[C@]1(O)C[C@H]2CN(CCc3c([nH]c4ccccc34)[C@@](C(=O)OC)(c3cc4c(cc3OC)N(C=O)[C@H]3[C@@](O)(C(=O)OC)[C@H](OC(C)=O)[C@]5(CC)C=CCN6CC[C@]43[C@@H]65)C2)C1 [free VCR, vincristine sulfate]
[18]
  comparative efficacy: less effective than either F5-ILs-VCR or Ls-VCR-Cit

## CCC1=C[C@@H]2CN(C1)Cc1c([nH]c3ccccc13)[C@@](C(=O)OC)(c1cc3c(cc1OC)N(C)[C@H]1[C@@](O)(C(=O)OC)[C@H](OC(C)=O)[C@]4(CC)C=CCN5CC[C@]31[C@@H]54)C2.O=C(O)C(O)C(O)C(=O)O.O=C(O)C(O)C(O)C(=O)O [free VRB, vinorelbine bitartrate]
[19]
  IC50: 1.2 µg/mL
[20]
  effect on tumor growth: the tumors always continued to grow

## c1c[nH]cn1 [imidazole]
[4]
  pKa: 7.03

## CC(C)(C)N [tert-butylamine]
[4]
  pKa: 10.68

## triethylammonium sulfate
[21]
  LD50 relative to the LD50 of doxorubicin: about 40 times
